Test results published in patent publication US10881110B2, “Herbicidal compositions comprising isoxazolo[5,4-b]pyridines” (BASF SE, priority 2014, dated 2021).

Assays:
Assay in all cases: greenhouse post-emergence herbicidal test
ABUTH = type: in vivo, Abutilon theophrast; set-up: key to herbicidal activity against ABUTH found: rating on a scale from 0 to 100; details: post emergence
Experimental: (§1) The culture containers used were plastic pots containing medium loamy sand with approximately 4.6% of humus and 69.9% sand as substrate. The seeds of the test plants were sown separately for each species.
(§2) For the post-emergence treatment, the test plants were grown to a plant height of from 1 to 15 cm, depending on the plant habit, and only then treated with the active compounds which had been suspended or emulsified in water. To this end, the test plants were either sown directly, and grown in the same containers, or they were first grown separately as seedlings and transplanted into the test containers a few days prior to treatment.
(§3) Depending on the species, the plants were kept at 10-25° C. and 20-35° C., respectively.
(§4) The test period extended over 1 to 3 weeks. During this time, the plants were tended and their response to the individual treatments was evaluated 20 days after treatment except mentioned otherwise.
(§5) Evaluation was carried out using a scale from 0 to 100. 100 means no emergence of the plants, or complete destruction of at least the above-ground parts, and 0 means no damage or normal course of growth.
(§6) The respective stated components A and B, and, if appropriate, C, were formulated as a 10% by weight strength emulsion concentrate and, with addition of the amount of solvent system, introduced into the spray liquor used for applying the active compound. In the examples, the solvent used was water.
(§7) In the examples below, using the method of S. R. Colby (1967) “Calculating synergistic and antagonistic responses of herbicide combinations”, Weeds 15, p. 22 ff., the value E, which is expected if the activity of the individual active compounds is only additive, was calculated. E=X+Y−(X·Y/100)

ERICA = type: in vivo, Conyza canadensis; set-up: key to herbicidal activity against ERICA found: rating on a scale from 0 to 100; details: post emergence
Experimental: as §1, §2, §3, §4, §5, §6, §7

GERDI = type: in vivo, Geranium dissectum; details: Geranium dissectum, post-emergence, 480 h, post emergence, read-out: herbicidal activity against GERDI found
Experimental: as §1, §2, §3, §4, §5, §6, §7

MATCH = type: in vivo, Matricaria recutita; set-up: key to herbicidal activity against MATCH found: rating on a scale from 0 to 100; details: post emergence
Experimental: as §1, §2, §3, §4, §5, §6, §7

POLCO = type: in vivo, Polygonum convolvulus; set-up: key to herbicidal activity against POLCO found: rating on a scale from 0 to 100; details: post emergence
Experimental: as §1, §2, §3, §4, §5, §6, §7

VIOAR = type: in vivo, Viola arvensis; set-up: key to herbicidal activity against VIOAR found / herbicidal activity against VIOLA found: rating on a scale from 0 to 100; details: post emergence
Experimental: as §1, §2, §3, §4, §5, §6, §7

ALOMY = type: in vivo, Alopecurus myosuroides; set-up: key to herbicidal activity against ALOMY found: rating on a scale from 0 to 100; details: post emergence
Experimental: as §1, §2, §3, §4, §5, §6, §7

GALAP = type: in vivo, Galium aparine; set-up: key to herbicidal activity against GALAP found: rating on a scale from 0 to 100; details: post emergence
Experimental: as §1, §2, §3, §4, §5, §6, §7

APESV = type: in vivo, Apera spica-venti; set-up: key to herbicidal activity against APESV found: rating on a scale from 0 to 100; details: post emergence; applied alone at 0.5 g/ha a.i.
Experimental: as §1, §2, §3, §4, §5, §6, §7

[1] = g/ha a.i.: I.1 125, B.63 0.5, mixture 125+0.5
[2] = g/ha a.i.: I.1 125, B.63 1, mixture 125+1
[3] = a.i. g/ha: I.1 31.25, B.92 0.5, 20 days after treatment
[4] = application rate a.i.: I.1 20.8 g/ha, B.107 (topramezone) 6 g/ha, alone or as mixture (composition 1.107)
[5] = application rate a.i.: I.1 62.5 g/ha, B.107 (topramezone) 6 g/ha, alone or as mixture (composition 1.107)
[6] = applied alone at 31.25 g/ha a.i.
[7] = applied alone at 62.5 g/ha a.i.

Structure (SMILES): CC(C)C1(C)N=C(c2ncccc2C(=O)O)NC1=O (centres unmarked) [B.35, imazapyr]
- pest or weed control at 10 g/ha (ABUTH; Abutilon theophrasti, post-emergence, 480 h, 10 g/ha a.i., read-out: herbicidal activity against ABUTH found): 90%
- pest or weed control at 5 g/ha (ERICA; Erigeron canadensis, post-emergence, 480 h, 5 g/ha a.i., read-out: herbicidal activity against ERICA found): 75%
- pest or weed control at 10 g/ha (GERDI; 10 g/ha a.i.): 95%
- pest or weed control at 10 g/ha (MATCH; Matricaria chamomilla, post-emergence, 480 h, 10 g/ha a.i., read-out: herbicidal activity against MATCH found): 55%
- pest or weed control at 5 g/ha (POLCO; Fallopia convolvulus, post-emergence, 480 h, 5 g/ha a.i., read-out: herbicidal activity against POLCO found): 95%
- pest or weed control at 5 g/ha (VIOAR; Viola arvensis, post-emergence, 5 g/ha a.i., read-out: herbicidal activity against VIOAR found): 55%

Structure (SMILES): COC(=O)c1ccc(I)cc1S(=O)(=O)[N-]C(=O)Nc1nc(C)nc(OC)n1.[Na+] [B.44, iodosulfuron-methyl-sodium]
- herbicidal activity against ALOMY found (ALOMY; 1 g/ha a.i.): 20
- herbicidal activity against POLCO found (POLCO; 1 g/ha a.i.): 90

Structure (SMILES): COC(=O)c1ccccc1S(=O)(=O)NC(=O)N(C)c1nc(C)nc(OC)n1 [B.63, tribenuron-methyl]
- herbicidal activity against ALOMY found (ALOMY; [1]): 0
- herbicidal activity against MATCH found (MATCH; [1]): 30
- herbicidal activity against POLCO found (POLCO; g/ha a.i.: I.1 31.25, B.63 1, mixture 31.25+1): 30
- herbicidal activity against POLCO found (POLCO; [1]): 20
- herbicidal activity against POLCO found (POLCO; [2]): 30
- herbicidal activity against VIOAR found (VIOAR; g/ha a.i.: I.1 62.5, B.63 0.5, mixture 62.5+0.5): 65
- herbicidal activity against VIOAR found (VIOAR; [2]): 40

Structure (SMILES): CC(C)N(C)S(=O)(=O)NC(=O)c1cc(-n2c(=O)cc(C(F)(F)F)n(C)c2=O)c(F)cc1Cl [B.92, saflufenacil]
- herbicidal activity against ERICA found (ERICA; [3]): 80%
- herbicidal activity against GALAP found (GALAP; [3]): 80%

Structure (SMILES): Cc1c(C(=O)c2cnn(C)c2O)ccc(S(C)(=O)=O)c1C1=NOCC1 [B.107, topramezone]
- herbicidal activity against ABUTH found (ABUTH; [4]): 85
- herbicidal activity against ABUTH found (ABUTH; [5]): 85
- herbicidal activity against ERICA found (ERICA; [4]): 65
- herbicidal activity against ERICA found (ERICA; [5]): 65
- herbicidal activity against GALAP found (GALAP; [5]): 70
- herbicidal activity against MATCH found (MATCH; [4]): 70
- herbicidal activity against POLCO found (POLCO; [5]): 35

Structure (SMILES): CCC(CC)Nc1c([N+](=O)[O-])cc(C)c(C)c1[N+](=O)[O-] [B.123, pendimethalin]
- pest or weed control at 500 g/ha (ERICA; Erigeron canadensis, post-emergence, 480 h, B.123 alone 500 g/ha a.i., read-out: herbicidal activity against ERICA found): 30%
- pest or weed control at 1000 g/ha (ERICA; Erigeron canadensis, post-emergence, 480 h, B.123 alone 1000 g/ha a.i., read-out: herbicidal activity against ERICA found): 60%
- pest or weed control at 1000 g/ha (GERDI; B.123 alone 1000 g/ha a.i.): 75%
- pest or weed control at 1000 g/ha (POLCO; Fallopia convolvulus, post-emergence, 480 h, B.123 alone 1000 g/ha a.i., read-out: herbicidal activity against POLCO found): 65%

Structure (SMILES): CCCOCCN(C(=O)CCl)c1c(CC)cccc1CC [B.135, pretilachlor]
- pest or weed control at 100 g/ha (ABUTH; Abutilon theophrasti, post-emergence, 480 h, B.135 100 g/ha a.i., read-out: herbicidal activity against ABUTH found): 0%
- pest or weed control at 200 g/ha (ABUTH; Abutilon theophrasti, post-emergence, 480 h, B.135 200 g/ha a.i., read-out: herbicidal activity against ABUTH found): 0%
- pest or weed control at 400 g/ha (ABUTH; Abutilon theophrasti, post-emergence, 480 h, B.135 400 g/ha a.i., read-out: herbicidal activity against ABUTH found): 0%
- pest or weed control at 100 g/ha (ERICA; Erigeron canadensis, post-emergence, 480 h, B.135 100 g/ha a.i., read-out: herbicidal activity against ERICA found): 0%
- pest or weed control at 200 g/ha (ERICA; Erigeron canadensis, post-emergence, 480 h, B.135 200 g/ha a.i., read-out: herbicidal activity against ERICA found): 0%
- pest or weed control at 400 g/ha (ERICA; Erigeron canadensis, post-emergence, 480 h, B.135 400 g/ha a.i., read-out: herbicidal activity against ERICA found): 20%
- pest or weed control at 200 g/ha (GALAP; Galium aparine, post-emergence, 480 h, B.135 200 g/ha a.i., read-out: herbicidal activity against GALAP found): 0%
- pest or weed control at 100 g/ha (GERDI; B.135 100 g/ha a.i.): 0%
- pest or weed control at 200 g/ha (GERDI; B.135 200 g/ha a.i.): 0%
- pest or weed control at 400 g/ha (GERDI; B.135 400 g/ha a.i.): 0%
- pest or weed control at 200 g/ha (MATCH; Matricaria chamomilla, post-emergence, 480 h, B.135 200 g/ha a.i., read-out: herbicidal activity against MATCH found): 0%
- pest or weed control at 400 g/ha (MATCH; Matricaria chamomilla, post-emergence, 480 h, B.135 400 g/ha a.i., read-out: herbicidal activity against MATCH found): 0%
- pest or weed control at 200 g/ha (POLCO; Fallopia convolvulus, post-emergence, 480 h, B.135 200 g/ha a.i., read-out: herbicidal activity against POLCO found): 0%

Structure (SMILES): O=C(O)COc1ccc(Cl)cc1Cl [B.140, 2,4-D]
- herbicidal activity against ABUTH found (ABUTH; [6]): 35
- herbicidal activity against ABUTH found (ABUTH; [7]): 85
- herbicidal activity against ALOMY found (ALOMY; [6]): 0
- herbicidal activity against ALOMY found (ALOMY; [7]): 0
- herbicidal activity against ERICA found (ERICA; [6]): 70
- herbicidal activity against ERICA found (ERICA; [7]): 80
- herbicidal activity against GALAP found (GALAP; [6]): 0
- herbicidal activity against GALAP found (GALAP; [7]): 0
- herbicidal activity against MATCH found (MATCH; [6]): 0
- herbicidal activity against POLCO found (POLCO; [6]): 65
- herbicidal activity against POLCO found (POLCO; [7]): 75
- herbicidal activity against VIOAR found (VIOAR; [6]): 60
- herbicidal activity against VIOAR found (VIOAR; [7]): 65

Structure (SMILES): CCCCCCCC/C=C\CCCCCCCC(=O)OC [methyl oleate]
- pest or weed control at 6 g/ha (ABUTH; Abutilon theophrasti, post-emergence, 480 h, methyl oleate 6 g/ha a.i., read-out: herbicidal activity against ABUTH found): 0%
- pest or weed control at 12 g/ha (ABUTH; Abutilon theophrasti, post-emergence, 480 h, methyl oleate 12 g/ha a.i., read-out: herbicidal activity against ABUTH found): 0%
- pest or weed control at 3 g/ha (ERICA; Erigeron canadensis, post-emergence, 480 h, methyl oleate 3 g/ha a.i., read-out: herbicidal activity against ERICA found): 0%
- pest or weed control at 6 g/ha (ERICA; Erigeron canadensis, post-emergence, 480 h, methyl oleate 6 g/ha a.i., read-out: herbicidal activity against ERICA found): 0%
- pest or weed control at 12 g/ha (ERICA; Erigeron canadensis, post-emergence, 480 h, methyl oleate 12 g/ha a.i., read-out: herbicidal activity against ERICA found): 0%
- pest or weed control at 12 g/ha (GALAP; Galium aparine, post-emergence, 480 h, methyl oleate 12 g/ha a.i., read-out: herbicidal activity against GALAP found): 0%
- pest or weed control at 3 g/ha (GERDI; methyl oleate 3 g/ha a.i.): 0%
- pest or weed control at 6 g/ha (GERDI; methyl oleate 6 g/ha a.i.): 0%
- pest or weed control at 12 g/ha (GERDI; methyl oleate 12 g/ha a.i.): 0%
- pest or weed control at 3 g/ha (MATCH; Matricaria chamomilla, post-emergence, 480 h, methyl oleate 3 g/ha a.i., read-out: herbicidal activity against MATCH found): 0%
- pest or weed control at 6 g/ha (MATCH; Matricaria chamomilla, post-emergence, 480 h, methyl oleate 6 g/ha a.i., read-out: herbicidal activity against MATCH found): 0%
- pest or weed control at 12 g/ha (MATCH; Matricaria chamomilla, post-emergence, 480 h, methyl oleate 12 g/ha a.i., read-out: herbicidal activity against MATCH found): 0%
- pest or weed control at 3 g/ha (POLCO; Fallopia convolvulus, post-emergence, 480 h, methyl oleate 3 g/ha a.i., read-out: herbicidal activity against POLCO found): 0%
- pest or weed control at 6 g/ha (POLCO; Fallopia convolvulus, post-emergence, 480 h, methyl oleate 6 g/ha a.i., read-out: herbicidal activity against POLCO found): 0%
- pest or weed control at 12 g/ha (POLCO; Fallopia convolvulus, post-emergence, 480 h, methyl oleate 12 g/ha a.i., read-out: herbicidal activity against POLCO found): 0%

Structure (SMILES): COc1nn(C(=O)NS(=O)(=O)c2c(C(=O)O)csc2C)c(=O)n1C [thiencarbazone]
- herbicidal activity against APESV found (APESV): 25
- herbicidal activity against ERICA found (ERICA; applied alone at 0.5 g/ha a.i.): 85
